Values of other authors, collected in patent publication US20140356497A1, “Composition” (Natural Biotechnology SPRL, priority 2011, published 2014).

System: Red Delicious apples
Details: 0.25% calcium ascorbate; considered unsatisfactory

Substance: calcium ascorbate
- time for which Red Delicious apples are preserved: ≤ 1 h
